Source: patent US7538111B2, “Benzenesulphonamide derivatives, method for production and use thereof for treatment of pain” (Laboratoires Fournier S.A., priority 2003, dated 2009)
Where a name gives a salt, the structure may show the parent alone.

Assays:
[1] = target: T1, B1 receptor of bradykinin (Homo sapiens, UniProt P46663); experiment: human umbilical vein contraction by des-Arg10-Kallidin, antagonism at the B1 receptor of bradykinin; format: cell-based; conditions: isolated human umbilical vein rings, agonist des-Arg10-Kallidin, pKB=-log KB from EC50 concentration ratio
T1 construct: To induce expression of the B1 receptor of bradykinin, the vein segments are allowed to incubate at 37° C; from tissue; host or cells: human umbilical vein rings, endothelium removed, incubated 16 h in EMEM to induce the receptor
T1 sequence (P46663 1-353): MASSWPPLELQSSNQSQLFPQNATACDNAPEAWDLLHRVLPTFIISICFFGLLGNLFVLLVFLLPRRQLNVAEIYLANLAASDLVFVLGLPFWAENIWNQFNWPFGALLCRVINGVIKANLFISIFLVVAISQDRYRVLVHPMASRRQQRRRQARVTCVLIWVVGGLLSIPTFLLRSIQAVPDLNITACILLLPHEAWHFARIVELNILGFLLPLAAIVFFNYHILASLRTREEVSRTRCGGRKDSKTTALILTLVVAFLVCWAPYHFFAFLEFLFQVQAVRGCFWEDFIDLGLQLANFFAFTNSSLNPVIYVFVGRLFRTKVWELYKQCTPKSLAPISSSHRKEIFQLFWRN
Protocol: This test uses the human umbilical vein and is conducted as per the following protocol:
The cord is dissected in Krebs solution to release the umbilical vein. The vein is cleansed of all adhering tissue and cut into small rings 3-4 mm in width. The endothelium is carefully removed by inserting a fine n° 1 catheter, made slightly abrasive, into the vessel lumen.
After a series of rinsings, rests and load readjustments, the maximum contraction of each segment is determined by further depolarisation with the KPSS solution.
After a new rest period during which the 1 g load is constantly readjusted, the following compounds are added to the isolated organ bath: Mepyramine (1 μM), Atropine (1 μM), Indometacine (3 μM), LNA (30 μM), Captopril (10 μM), DL-Thiorphan (1 μM) and Nifedipine (0.1 μM).
After 20 minutes, the molecule to be tested or the molecule solvent is added to the isolated organ bath. The molecules are examined at 10 μM; should a molecule show a sufficient level of activity, it is examined at lower concentrations (eg: 1-0.1-0.01 μM).
After 15 minutes incubation, the vein segments are contracted through the addition of increasing concentrations of des-Arg10-Kallidin (0.1 nM to 30 000 nM) in the chamber.
The pKB=[−log KB] is obtained from the equation: KB—[A]/(concentration ratio−1) in which [A] is the concentration of antagonist and the (concentration ratio) represents the ratio between EC50 in the presence of an antagonist and EC50 in the absence of antagonist.

[2] = system: formalin-induced pain response (paw licking); experiment: formalin-induced pain response test in mice; format: in vivo; conditions: oral route, 2nd phase 15 to 30 min after formalin injection
Protocol: The compounds of the present invention were evaluated for their analgesic property using the formalin-induced pain response test in mice (Shibata, M., Ohkubo, T., Takahashi, H. & R. Inoki. Modified formalin test: characteristic biphasic pain response. Pain, 38, 347-352). To summarize, formalin (0.92% in physiological saline) is injected into the hind paw and the period of paw licking, which represents pain intensity, is recorded from 0 to 5 min (1st phase) and from 15 to 30 min (2nd phase) after the injection.

Row | Structure (SMILES) | melting point [°C] | Kb [1] [nM] | also measured
1 | CCN(CCOCC(=O)N1CCN(CCCN(C)C)CC1)S(=O)(=O)c1c(C)cc(OC)cc1C.O=C(O)/C=C/C(=O)O.O=C(O)/C=C/C(=O)O | 60 | – | –
2 | COc1cc(C)c(S(=O)(=O)N(C)CCOCC(=O)N2CCC(CCN3CCCC3)CC2)c(C)c1 (as salt: fumarate) [Example 76, 4-methoxy-N,2,6-trimethyl-N-[2-[2-[4-[2-(1-pyrrolidinyl)ethyl]-1-piperidinyl]-2-oxoethoxy]ethyl]benzenesulphonamide, fumarate] | 55 | – | –
3 | CCN1C2CCC1CC(N1CCN(C(=O)COCCN(C)S(=O)(=O)c3c(C)cc(OC)cc3C)CC1)C2 (stereo not drawn) [Example 46, N-[2-[2-[4-(8-ethyl-8-azabicyclo[3.2.1]oct-3-yl)-1-piperazinyl]-2-oxo-ethoxy]ethyl]-4-methoxy-N,2,6-trimethylbenzenesulphonamide, difumarate] | – | 2.51 | –
4 | COc1cc(C)c(S(=O)(=O)N(C)CCOCC(=O)N2CCN(C3CN4CCC3CC4)CC2)c(C)c1 (racemic) [Example 4, N-[2-[2-[4-[(3RS)-1-azabicyclo[2.2.2]oct-3-yl]-1-piperazinyl]-2-oxo-ethoxy]ethyl]-4-methoxy-N,2,6-trimethylbenzenesulphonamide, difumarate] | – | – | percentage inhibition of the second paw licking phase induced by formalin ([2]; dose 3 mg/kg): 43%
5 | CCN(CCOCC(=O)N1CCN(C2CCN(C)CC2)CC1)S(=O)(=O)c1c(C)cc(OC)cc1C [Example 21, N-[2-[2-[4-(1-methyl-4-piperidinyl)-1-piperazinyl]-2-oxo-ethoxy]ethyl]-4-methoxy-N-ethyl-2,6-dimethylbenzenesulphonamide, difumarate] | – | 15.8 | –
6 | COc1cc(C)c(S(=O)(=O)N(C)CCOCC(=O)N2CCN([C@@H]3CN4CCC3CC4)CC2)c(C)c1 [Example 6, N-[2-[2-[4-[(3S)-1-azabicyclo[2.2.2]oct-3-yl]-1-piperazinyl]-2-oxo-ethoxy]ethyl]-4-methoxy-N,2,6-trimethylbenzenesulphonamide, fumarate] | – | – | percentage inhibition of the second paw licking phase induced by formalin ([2]; dose 1 mg/kg): 40%
7 | COc1cc(C)c(S(=O)(=O)N(C)CCOCC(=O)N2CCC(CN3CCC3)CC2)c(C)c1.O=C(O)/C=C/C(=O)O | 75 | – | –
8 | COc1cc(C)c(S(=O)(=O)N(C)CCOCC(=O)N2CCC(N3CCCN(C)CC3)CC2)c(C)c1 [Example 89, N-[2-[2-[4-(hexahydro-4-methyl-1H-1,4-diazepin-1-yl)-1-piperidinyl]-2-oxoethoxy]ethyl]-4-methoxy-N,2,6-trimethylbenzenesulphonamide, fumarate] | – | 7.94 | –
9 | COc1cc(C)c(S(=O)(=O)N(C)CCOCC(=O)N2CCC(C(C)(C)CN3CCC3)CC2)c(C)c1.O=C(O)/C=C/C(=O)O | 60 to 62 | – | –
10 | CCN1CCC(C2CCN(C(=O)COCCN(C)S(=O)(=O)c3c(C)cc(OC)cc3C)CC2)CC1 [Example 84, 4-methoxy-N,2,6-trimethyl-N-[2-[2-[4-(1-ethyl-4-piperidinyl)-1-piperidinyl]-2-oxoethoxy]ethyl]benzenesulphonamide, fumarate] | – | 0.631 | –
11 | COc1cc(C)c(S(=O)(=O)N(CCOCC(=O)N2CCN(CCN3CCCC3)CC2)C2CC2)c(C)c1 (as salt: fumarate) [Example 19, N-[2-[2-[4-[2-(1-pyrrolidinyl)ethyl]-1-piperazinyl]-2-oxo-ethoxy]ethyl]-4-methoxy-N-cyclopropyl-2,6-dimethylbenzenesulphonamide, difumarate] | 141 | – | –
12 | COc1cc(C)c(S(=O)(=O)N(C)CCOCC(=O)N2CCC(CCCN3CCC3)CC2)c(C)c1.O=C(O)/C=C/C(=O)O | 65 | – | –
13 | CCN(CC)CCC1CCN(C(=O)COCCN(C)S(=O)(=O)c2c(C)cc(OC)cc2C)CC1.O=C(O)/C=C/C(=O)O | 60 | – | –
14 | COc1cc(C)c(S(=O)(=O)N(CCOCC(=O)N2CCN(CCN3CCCC3)CC2)C2CC2)c(C)c1 [Example 19, N-[2-[2-[4-[2-(1-pyrrolidinyl)ethyl]-1-piperazinyl]-2-oxo-ethoxy]ethyl]-4-methoxy-N-cyclopropyl-2,6-dimethylbenzenesulphonamide, difumarate] | – | 31.6 | –
15 | COc1cc(C)c(S(=O)(=O)N(C)CCOCC(=O)N2CCN(C3CCN(C(C)(C)C)CC3)CC2)c(C)c1 [Example 32, N-[2-[2-[4-[1-(1,1-dimethylethyl)-4-piperidinyl]-1-piperazinyl]-2-oxo-ethoxy]ethyl]-4-methoxy-N,2,6-trimethylbenzenesulphonamide, difumarate] | – | 0.631 | –
16 | COc1cc(C)c(S(=O)(=O)N(C)CCOCC(=O)N2CCN(CCCN3CCC3)CC2)c(C)c1.O=C(O)/C=C/C(=O)O.O=C(O)/C=C/C(=O)O | 82 | – | –
17 | COc1cc(Cl)c(S(=O)(=O)N(C)CCOCC(=O)N2CCC(CCN(C)C)CC2)c(Cl)c1.O=C(O)/C=C/C(=O)O | 70 | – | –
18 | CCN(CCOCC(=O)N1CCN(C2CCN(C)CC2)CC1)S(=O)(=O)c1c(C)cc(OC)cc1C (as salt: fumarate) [Example 21, N-[2-[2-[4-(1-methyl-4-piperidinyl)-1-piperazinyl]-2-oxo-ethoxy]ethyl]-4-methoxy-N-ethyl-2,6-dimethylbenzenesulphonamide, difumarate] | 206 | – | –
19 | COc1cc(C)c(S(=O)(=O)N(C)CCOCC(=O)N2CCN(C3CCN(C(C)(C)C)CC3)CC2)c(C)c1 (as salt: fumarate) [Example 32, N-[2-[2-[4-[1-(1,1-dimethylethyl)-4-piperidinyl]-1-piperazinyl]-2-oxo-ethoxy]ethyl]-4-methoxy-N,2,6-trimethylbenzenesulphonamide, difumarate] | 230 | – | –
20 | COc1cc(C)c(S(=O)(=O)N(CCOCC(=O)N2CCC(CCN3CCCC3)CC2)C2CC2)c(C)c1 (as salt: fumarate) [Example 79, N-cyclopropyl-4-methoxy-2,6-dimethyl-N-[2-[2-[4-[2-(1-pyrrolidinyl)ethyl]-1-piperidinyl]-2-oxoethoxy]ethyl]benzenesulphonamide, fumarate] | 50 | – | –
21 | COc1cc(C)c(S(=O)(=O)N(CCOCC(=O)N2CCC(CCN3CCCC3)CC2)C2CC2)c(C)c1 [Example 79, N-cyclopropyl-4-methoxy-2,6-dimethyl-N-[2-[2-[4-[2-(1-pyrrolidinyl)ethyl]-1-piperidinyl]-2-oxoethoxy]ethyl]benzenesulphonamide, fumarate] | – | 7.94 | –
22 | COc1cc(C)c(S(=O)(=O)N(C)CCOCC(=O)N2CCC(CCN3CCCC3)CC2)c(C)c1 [Example 76, 4-methoxy-N,2,6-trimethyl-N-[2-[2-[4-[2-(1-pyrrolidinyl)ethyl]-1-piperidinyl]-2-oxoethoxy]ethyl]benzenesulphonamide, fumarate] | – | 10 | –
23 | COc1cc(C)c(S(=O)(=O)N(C)CCOCC(=O)N2CCN(CCCN3CCN(C)CC3)CC2)c(C)c1 (as salt: fumarate) [Example 45, N-[2-[2-[4-[3-(4-methyl-1-piperazinyl)propyl]-1-piperazinyl]-2-oxo-ethoxy]ethyl]-4-methoxy-N,2,6-trimethylbenzenesulphonamide, difumarate] | 204 | – | –
24 | CCN1C2CCC1CC(N1CCN(C(=O)COCCN(C)S(=O)(=O)c3c(C)cc(OC)cc3C)CC1)C2 (stereo not drawn) (as salt: fumarate) [Example 46, N-[2-[2-[4-(8-ethyl-8-azabicyclo[3.2.1]oct-3-yl)-1-piperazinyl]-2-oxo-ethoxy]ethyl]-4-methoxy-N,2,6-trimethylbenzenesulphonamide, difumarate] | 132 | – | –
25 | COc1cc(C)c(S(=O)(=O)N(C)CCOCC(=O)N2CCN(CCCN3CCN(C)CC3)CC2)c(C)c1 [Example 45, N-[2-[2-[4-[3-(4-methyl-1-piperazinyl)propyl]-1-piperazinyl]-2-oxo-ethoxy]ethyl]-4-methoxy-N,2,6-trimethylbenzenesulphonamide, difumarate] | – | 12.6 | –
26 | COc1cc(C)c(S(=O)(=O)N(C)CCOCC(=O)N2CCC(CCCN(C)C)CC2)c(C)c1.O=C(O)/C=C/C(=O)O | 55 | – | –
27 | COc1cc(Cl)c(S(=O)(=O)N(C)CCOCC(=O)N2CCN(CCCN(C)C)CC2)c(Cl)c1.O=C(O)/C=C/C(=O)O.O=C(O)/C=C/C(=O)O | 60 | – | –
